According to patent US8399682B2, “Substituted (pyrazolylcarbonyl)imidazolidinones and their use” (AiCuris GmbH & Co. KG, priority 2008, dated 2013):
Read-outs that look alike come from different tables or passages of the source.

Assays:
[1] = tested on: HIV-1NL4-3 wt; assay: Light assay with wild-type HI reporter virus in MT4 7F2 cells; format: cell-based; details: Human immunodeficiency virus 1, 2% FCS
Method: (§1) For the mixture for a 96-well MTP, 3 million MT4 7F2 cells are pelleted, suspended in 1 ml of RPMI 1640 medium without phenol red (Invitrogen, Karlsruhe, Germany)/10% FCS/10% AIM-V (Invitrogen, Karlsruhe, Germany) and incubated together with a suitable amount of the corresponding HIV-1NL4-3 reporter virus at 37° C. for 2 hours (pellet infection). Unadsorbed viruses are subsequently washed out with PBS, and the infected cells are pelleted again and suspended in 8 ml of RPMI 1640 medium without phenol red/2% or 10% FCS/10% AIM-V. 80 μl thereof are pipetted into each well of a white 96-well MTP with 20 μl of test substance in suitable dilution. To avoid edge effects, the wells on the edge of the MTP are not used for substance dilutions. The second vertical row of the MTP contains only infected cells (virus control) and the eleventh vertical row only uninfected cells (cell control), in each case in RPMI 1640 medium without phenol red/2% or 10% FCS/10% AIM-V. The other wells of the MTP contain the compounds of the invention in various concentrations starting from the third vertical row, from which the test substances are diluted in 3-fold steps up to the tenth vertical row 3^7-fold. The test substances are dissolved in DMSO, whereby the final DMSO concentration in the test mixture eventually is 1%. The test mixtures are incubated at 37° C./5% CO2 for five days and, after the addition of 15 μl of Lu164 substrate (5 mg/ml coelenterazine dissolved in 30 μM glutathione/DMSO, 100 mM NaCl, 1M MES, 100 mM glutathione), evaluated by luminometry. The resulting values are in the region of 1 000 000 RLUs (relative light units) for the virus control and 300 to 400 RLUs for the cell control. The EC50 values of the test substances are determined as the concentration at which the virus replication measured in RLUs is 50% of the untreated infected cells.

[2] = biological target: T1, reverse transcriptase (Human immunodeficiency virus type 1 group M subtype B, UniProt P04585); assay: Biochemical Reverse Transcriptase Assay (Reverse Transcriptase Assay, colorimetric, Roche)
T1 construct: negative control (mixture without reverse transcriptase); purchased Roche Diagnostics GmbH, Mannheim, Germany
Method: The “Reverse Transcriptase Assay, colorimetric” (Roche Diagnostics GmbH, Mannheim, Germany) is used in accordance with the manufacturer's information. The test substances are dissolved in DMSO and are used in the test diluted in 5-fold steps (final DMSO concentration 1%). The resulting values of the photometric evaluation (405/492 nm) are less than 0.1 for the negative control (mixture without reverse transcriptase) and are in the region of 1.5 for the positive control (mixture without test substance). The IC50 values of the test substances are determined as the concentration of the test substance dilution at which the measured optical density is 50% of the positive control.

[3] = tested on: HIV-1NL4-3 K103N-Y181C; assay: Light assay with inhibitor-resistant HI reporter virus in MT4 7F2 cells; format: cell-based; details: Human immunodeficiency virus 1, read-out: EC50 (nM) MT4 7F2 cells HIV-1NL4-3 K103N-Y181C 2% FCS
Method: as §1

[4] = tested on: HIV-1LAI; assay: H9 assay with wild-type HIV-1 (HIV-1LAI supernatant infection, AlamarBlue); format: cell-based; details: Human immunodeficiency virus 1, H9 cells, 10% FCS
Method: For the mixture for a 96-well MTP, 3 million PBLs are pelleted, suspended in 1 ml of RPMI 1640 medium/10% FCS and incubated together with a suitable amount of HIV-1LAI (NIH AIDS Research & Reference Reagent Program, Germantown, USA) at 37° C. for 2 hours (pellet infection). Unadsorbed viruses are subsequently washed out with PBS, and the infected cells are pelleted again and suspended in 18 ml of RPMI 1640 medium/10% FCS/interleukin-2 (40 U/ml). 180 μl thereof are pipetted into each well of a white 96-well MTP with 20 μl of test substance in suitable dilution. Alternatively, after preparation of the substance dilutions in the MTP, the HIV is pipetted in together with the cells and is not washed out again (supernatant infection). In order to avoid edge effects, the wells at the edge of the MTP are not used for substance dilutions. The second vertical row of the MTP contains only infected cells (virus control) and the eleventh vertical row only uninfected cells (cell control), in each case in RPMI 1640 medium/10% FCS/interleukin-2 (40 U/ml). The other wells of the MTP contain the compounds of the invention in various concentrations starting from the third vertical row, from which the test substances are diluted in 3-fold steps up to the tenth vertical row 3^7-fold. The test substances are dissolved in DMSO, whereby the final DMSO concentration in the test mixture eventually is 1%. The test mixtures are incubated at 37° C./5% CO2. After 5 and 7 days, 50 μl of cell-free supernatant are removed from each well to determine the amount of p24 present by means of a p24 ELISA (HIV-1 p24^CA Antigen Capture Assay Kit, NCI-Frederick Cancer Research and Development Center, Frederick, USA). From the resulting values of the photometric evaluation (450/620 nm) the EC50 values of the test substances are determined as the concentration at which the amount of p24 is 50% of the untreated infected cells.
Alternatively, H9 cells (ATCC, Wesel, Germany) are employed instead of PBLs for testing the test substances. H9 cells are incubated in RPMI 1640 medium with 2% or 10% FCS as a HIV-1LAI supernatant infection at 37° C./5% CO2, (20 μl of substance dilution and 80 μl of cells/virus per well) in accordance with the pattern described above for 5 days. Subsequently, 10 μl of AlamarBlue (Invitrogen, Karlsruhe, Germany) are added to each well, and the MTPs are incubated at 37° C. for 3 hours before the fluorimetric evaluation takes place (544/590 nm). The resulting values are about 40 000 for the untreated uninfected cells and about 7000 for the untreated infected cells. In the low concentration range, the EC50 values of the test substances are determined as the concentration at which the fluorescence is 50% of the untreated uninfected cells (in each case subtracting the values of the untreated infected cells). In addition, in the high concentration range, the CC50 values of the test substances are determined as the concentration at which the fluorescence is 50% of the untreated uninfected cells (in each case subtracting the values of the untreated infected cells).

| SMILES | EC50 [1] [nM] | IC50 ([2]; read-out: IC50 (nM) RT Assay) [nM] | EC50 [3] [nM] | EC50 [4] [nM] | IC50 [2] [nM] |
| --- | --- | --- | --- | --- | --- |
| O=C1CN(C(=O)c2cc(-c3cc(F)cc(Cl)c3)n(-c3ccc(F)c(Cl)c3)n2)CN1 [Example 1, 1-{[1-(3-Chloro-4-fluorophenyl)-5-(3-chloro-5-fluorophenyl)-1H-pyrazol-3-yl]carbonyl}imidazolidin-4-one] | 0.2 | 38 | 3 | 2 |  |
| O=C1CN(C(=O)c2cc(-c3cc(F)cc(Cl)c3)n(-c3cccc(Cl)c3)n2)CN1 [Example 2, 1-{[5-(3-Chloro-5-fluorophenyl)-1-(3-chlorophenyl)-1H-pyrazol-3-yl]carbonyl}imidazolidin-4-one] | 0.06 | 34 | 11 | 0.2 |  |
| O=C1CN(C(=O)c2cc(-c3cc(F)cc(F)c3)n(-c3cccc(Cl)c3)n2)CN1 [Example 3, 1-{[1-(3-Chlorophenyl)-5-(3,5-difluorophenyl)-1H-pyrazol-3-yl]carbonyl}imidazolidin-4-one] | 0.03 | 37 | 7 | 0.2 |  |
| O=C1CN(C(=O)c2cc(-c3cccc(Cl)c3)n(-c3cccc(Cl)c3)n2)CN1 [Example 4, 1-{[1,5-Bis(3-chlorophenyl)-1H-pyrazol-3-yl]carbonyl}imidazolidin-4-one] | 1 | 75 | 45 | 11 |  |
| COc1cc(F)cc(-c2cc(C(=O)N3CNC(=O)C3)nn2-c2cccc(Cl)c2)c1 [Example 21, 1-{[1-(3-Chlorophenyl)-5-(3-fluoro-5-methoxyphenyl)-1H-pyrazol-3-yl]carbonyl}imidazolidin-4-one] | 1 | 59 | 38 | 3 |  |
| COc1cc(F)cc(-c2cc(C(=O)N3CNC(=O)C3)nn2-c2ccc(F)c(Cl)c2)c1 [Example 22, 1-{[1-(3-Chloro-4-fluorophenyl)-5-(3-fluoro-5-methoxyphenyl)-1H-pyrazol-3-yl]carbonyl}imidazolidin-4-one] | 0.3 | 131 | 10 | 2 |  |
| N#Cc1cccc(-c2cc(C(=O)N3CNC(=O)C3)nn2-c2ccc(F)c(Cl)c2)c1 [Example 25] | 0.6 | 99 | 30 | 2 |  |
| O=C1CN(C(=O)c2cc(-c3cccc(F)c3)n(-c3ccc(F)c(Cl)c3)n2)CN1 [Example 26, 1-{[1-(3-Chloro-4-fluorophenyl)-5-(3-fluorophenyl)-1H-pyrazol-3-yl]carbonyl}imidazolidin-4-one] | 2 | 104 | 65 | 11 |  |
| O=C1CN(C(=O)c2cc(-c3cc(F)cc(C(F)(F)F)c3)n(-c3cccc(Cl)c3)n2)CN1 [Example 30, 1-({1-(3-Chlorophenyl)-5-[3-fluoro-5-(trifluoromethyl)phenyl]-1H-pyrazol-3-yl}carbonyl)imidazolidin-4-one] | 3 | 297 | 16 | 8 |  |
| O=C1CN(C(=O)c2cc(-c3cccc(Cl)c3)n(-c3cccc(Br)c3)n2)CN1 [Example 32, 1-{[1-(3-Bromophenyl)-5-(3-chlorophenyl)-1H-pyrazol-3-yl]carbonyl}imidazolidin-4-one] | 0.1 | 65 | 25 | 0.7 |  |
| O=C1CN(C(=O)c2cc(-c3ccc(F)c(Cl)c3)n(-c3cccc(Br)c3)n2)CN1 [Example 33, 1-{[1-(3-Bromophenyl)-5-(3-chloro-4-fluorophenyl)-1H-pyrazol-3-yl]carbonyl}imidazolidin-4-one] | 0.07 | 8 | 3 | 0.5 |  |
| O=C1CN(C(=O)c2cc(-c3cc(F)cc(OCCO)c3)n(-c3ccc(F)c(Cl)c3)n2)CN1 [Example 36] | 0.6 |  | 45 | 3 | 52 |
| O=C1CN(C(=O)c2cc(-c3cccc(OCCCN4CCOCC4)c3)n(-c3cccc(Cl)c3)n2)CN1 [Example 37, 1-({1-(3-Chlorophenyl)-5-[3-(3-morpholin-1-ylpropoxy)phenyl]-1H-pyrazol-3-yl}carbonyl)imidazolidin-4-one] | 18 | 175 | 2000 | 33 |  |
| COc1cccc(-c2cc(C(=O)N3CNC(=O)C3)nn2-c2ccc(F)c(Cl)c2)c1 [Example 38, 1-{[1-(3-Chloro-4-fluorophenyl)-5-(3-methoxyphenyl)-1H-pyrazol-3-yl]carbonyl}imidazolidin-4-one] | 9 | 365 | 80 | 120 |  |
| Cc1cc(F)cc(-c2cc(C(=O)N3CNC(=O)C3)nn2-c2cccc(Cl)c2)c1 [Example 51, 1-{[1-(3-Chlorophenyl)-5-(3-fluoro-5-methylphenyl)-1H-pyrazol-3-yl]carbonyl}imidazolidin-4-one] | 0.4 | 60 | 15 | 1 |  |
| N#Cc1cccc(-n2nc(C(=O)N3CNC(=O)C3)cc2-c2ccc(F)c(Cl)c2)c1 [Example 52, 1-{[5-(3-Chloro-4-fluorophenyl)-1-(3-Cyanophenyl)-1H-pyrazol-3-yl]carbonyl}imidazolidin-4-one] | 0.1 | 38 | 17 | 2 |  |
| N#Cc1cc(-n2nc(C(=O)N3CNC(=O)C3)cc2-c2cccc(Cl)c2)ccc1F [Example 53, 1-{[5-(3-Chlorophenyl)-1-(3-Cyano-4-fluorophenyl)-1H-pyrazol-3-yl]carbonyl}imidazolidin-4-one] | 0.3 | 46 | 33 | 1 |  |
| N#Cc1cccc(-n2nc(C(=O)N3CNC(=O)C3)cc2-c2cccc(Cl)c2)c1 [Example 56, 3-{5-(3-Chlorophenyl)-3-[(4-oxoimidazolidin-1-yl)carbonyl]-1H-pyrazol-1-yl}benzenecarbonitrile] | 0.03 | 14 | 12 | 0.1 |  |
